Ends that are not written are not given here. Peptide text beside a SMILES is read from it.
What follows are molecules tested against ACE-I enzyme (Homo sapiens, UniProt P12821) (assay: ACE-I activity in vitro using FAPGG as substrate). Details: peptides purified by reverse-phase HPLC from 10 kDa UF permeate of Example 1 hydrolysate.
ACE-I enzyme, sequence (P12821 30-1306): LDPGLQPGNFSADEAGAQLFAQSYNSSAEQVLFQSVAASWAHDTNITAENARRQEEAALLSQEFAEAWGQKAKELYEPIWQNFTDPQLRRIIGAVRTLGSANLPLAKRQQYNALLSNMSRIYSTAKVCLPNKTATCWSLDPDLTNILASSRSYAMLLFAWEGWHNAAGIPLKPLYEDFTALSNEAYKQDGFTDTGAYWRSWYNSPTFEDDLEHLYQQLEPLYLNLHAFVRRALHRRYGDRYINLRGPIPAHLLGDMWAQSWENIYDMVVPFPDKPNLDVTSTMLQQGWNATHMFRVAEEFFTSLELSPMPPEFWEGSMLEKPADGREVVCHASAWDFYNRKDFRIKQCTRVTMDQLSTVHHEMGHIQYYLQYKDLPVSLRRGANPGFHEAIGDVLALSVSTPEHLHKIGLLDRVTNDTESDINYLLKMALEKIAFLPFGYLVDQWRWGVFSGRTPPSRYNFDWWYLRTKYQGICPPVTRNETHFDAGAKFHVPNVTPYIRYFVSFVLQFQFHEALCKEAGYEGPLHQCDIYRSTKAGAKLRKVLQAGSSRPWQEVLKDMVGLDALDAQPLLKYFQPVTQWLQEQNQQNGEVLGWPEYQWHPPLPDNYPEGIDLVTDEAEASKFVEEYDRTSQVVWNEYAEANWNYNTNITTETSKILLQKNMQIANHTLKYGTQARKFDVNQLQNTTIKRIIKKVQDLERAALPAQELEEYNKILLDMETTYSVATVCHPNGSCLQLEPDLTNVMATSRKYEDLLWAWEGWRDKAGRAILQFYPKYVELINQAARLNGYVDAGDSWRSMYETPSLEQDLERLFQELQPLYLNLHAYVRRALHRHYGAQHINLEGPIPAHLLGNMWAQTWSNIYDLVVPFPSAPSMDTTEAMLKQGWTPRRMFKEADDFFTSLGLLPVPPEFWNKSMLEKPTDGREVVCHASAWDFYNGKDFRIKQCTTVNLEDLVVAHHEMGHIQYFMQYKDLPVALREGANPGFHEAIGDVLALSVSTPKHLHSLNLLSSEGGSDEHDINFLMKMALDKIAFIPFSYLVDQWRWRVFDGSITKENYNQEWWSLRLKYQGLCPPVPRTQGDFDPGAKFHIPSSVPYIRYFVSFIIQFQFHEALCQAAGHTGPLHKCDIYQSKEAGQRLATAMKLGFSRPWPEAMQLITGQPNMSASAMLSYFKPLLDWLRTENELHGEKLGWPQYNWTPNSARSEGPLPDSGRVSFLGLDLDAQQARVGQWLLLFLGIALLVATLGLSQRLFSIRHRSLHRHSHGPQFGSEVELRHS
Assay type: biochemical
Experimental: ACE-I activity (in vitro) in the dried product was determined using FAPGG as a substrate (Product 305–10 ex Sigma Chemical Corporation, St Louis, Mo., USA) according of the method of D W Cushman & H S Cheung (1971). ACE-I activities are expressed as the amount of material (mg/L) needed to reduce the activity of the ACE-I enzyme by 50%.
With `C[C@H](NC(=O)[C@@H](N)CO)C(=O)N1CCC[C@H]1C(=O)O` [Peptide 1, SAP] (H-Ser-Ala-Pro-OH; N-terminus and C-terminus assumed) the IC50 was 80.5 µM.
In the case of `CSCC[C@H](N)C(=O)N[C@@H](CCCCN)C(=O)NCC(=O)O` [Peptide 2, MKG] (H-Met-Lys-Gly-OH; N-terminus and C-terminus assumed), the IC50 is reported as 68.8 µM.
With ALPMH [Peptide 3, ALPMH] the IC50 was 40.5 µM.
Molecule LIVTQ [Peptide 4, LIVTQ] has an IC50 of 33.2 µM.
LKGYGGVSLPEW [Peptide 7] gave an IC50 of 5.36 µM.
With VSLPEW [Peptide 5, VSLPEW] the IC50 was 11 µM.

Each molecule was assayed on Spontaneously hypertensive rats (SHRs) (assay: Acute short term effect on systolic blood pressure (tail cuff)). Details: 165 mg/kg body weight, oral in jelly, p=0.0021 after 4 hours, p<0.0001 after 8 hours.
Assay type: in vivo, rat
Experimental: Blood pressure was measured using a tail cuff monitor and a purpose designed apparatus for measuring the blood pressure of small animals [IITC Inc, 239 Victory Blvd., Woodland Hills, Calif. 91367, USA]. Each time point was the average of 3–5 readings taken within approximately 5–10 minutes.
Spontaneously hypertensive rats (SHRs) were sourced from the Animal Resource Centre, Western Australia.
The test substances were given to each rat on a per kg body weight basis unless otherwise stated. The individual dose for each animal was incorporated into a flavoured jelly, which was readily consumed by the animals.
The three samples evaluated for short tern blood pressure response were a mildly hydrolysed whey protein concentrate (FIG. 2), a mildly hydrolysed whey protein isolate (see FIG. 3) and a synthesised peptide from. Table 1, namely MKG (SEQ ID NO: 2) (see FIG. 4). The WPC was prepared according to the methodology set out in example 1 of WO 99/65326.
Acute or short term effects of agents were determined by treating adult SHRs with the agent and then studying their blood pressure responses over the following hours. The study detects if an agent lowers blood pressure that is already elevated.
With `CSCC[C@H](N)C(=O)N[C@@H](CCCCN)C(=O)NCC(=O)O` [Peptide 2, MKG] (H-Met-Lys-Gly-OH; N-terminus and C-terminus assumed) the “Reduction in systolic blood pressure compared to control rats” value was “much greater reduction in blood pressure”.

From patent publication US7148034B2, “Bioactive whey protein hydrolysate” (New Zealand Dairy Board, priority 2001, dated 2006)
